Read-outs that look alike come from different tables or passages of the source.

Details of assay [1]: method as in Mozzicafreddo et al. ([2006]). The note with it: ref Mozzicafreddo et al. ([2006]); cited from earlier work.
The target of assay [2] is T1, human thrombin (Homo sapiens, UniProt P00734). Briefly: Thrombin-induced fibrinogen polymerization. As to conditions: thrombin preincubated with compound. It counts as biochemical. The arrangement: Thrombin, also known as an active plasma coagulation factor II; purchased Sigma-Aldrich Chemical Co. (St. Louis, MO, USA) T7009. The protocol: In these preparations, to nine volumes of thrombin one volume of polyphenolic compounds was added (final thrombin concentration was 15.8 nM). All tested compounds were dissolved in 50 % DMSO to the initial concentration of 10 mM; other solutions of compounds were also prepared in 50 % DMSO (prepared in 50 mM TBS, pH 7.4). […] Polymerization of fibrin was monitored at 595 nm using a 96-well microtiter plate reader. To each reaction well of the microtiter plate, 100 μl of fibrinogen (3 mg/ml) in 50 mM TBS and 5 mM CaCl2, pH 7.4, were added. […] The maximal velocity of the polymerization process (V max, Δm OD/min) for each absorbance curve was determined (Nowak et al., [2007]).

Assay [3] has as its target T1, human thrombin. Briefly: BIAcore (SPR) analysis of binding to immobilized thrombin. Set-up: Thrombin, also known as an active plasma coagulation factor II; purchased Sigma-Aldrich Chemical Co. (St. Louis, MO, USA) T7009. As for the experimental part: The biosensor assays were performed using the BIAcore 1000 biosensor system. All biosensor analyses were performed with a phosphate-buffered saline (PBS), pH 7.4, as a running buffer. […] The immobilization of thrombin on a biosensor carboxylmethyl dextran surface was performed according to the BIA applications Handbook (BIAcore, [1994]). The process of protein immobilization was performed on a sensor chip CM5 surface by the positively charged functional groups of protein amino acids. The immobilization process consisted of four steps: preconcentration, activation, ligand immobilization and deactivation of the residual NHS esters. […] The temperature during the whole experiment was also constant and was set to 25.0 °C. […] Each of these solutions (10 μl) was injected into an empty sensor chip channel. […] The amount of injected activation mixture was modified, to regulate the amount of immobilized ligand. […] The conditions of the latter experiments were established by numerous pre-tests. The assessed parameters included: the buffer flow rate, the volume of analyte injection, the concentration of analytes, types and concentration of regenerators. […] For each injection of analyte solution, the volume used was 100 μl. After injection of analyte was completed, the dissociation step occurred and the level of the interaction ligand-analyte was measured. During dissociation, the particles non-covalently bound to the ligand were washed out from the working channel. […] To do these calculations, the formulas presented below were used: the association rate […]]; the dissociation rate -d[AB]/dt=kd·[AB]; the equilibrium constants: KA=[AB]/[A]·[B]=ka/kd KD=[A]·[B]/[AB]=kd/ka.

Assay [4] deals with T1, human thrombin. Kind of assay: Amidolytic activity of thrombin (hydrolysis of chromogenic substrate D-Phe-Pip-Arg-pNA). It counts as biochemical. Set-up: Thrombin, also known as an active plasma coagulation factor II; purchased Sigma-Aldrich Chemical Co. (St. Louis, MO, USA) T7009; host or cells: purified from human plasma. As to conditions: at 375 μM substrate concentration; compounds 0.1–1,000 μM, preincubation 10 min 37 °C; read-out: IC50, amidolytic activity of human thrombin. The protocol: All tested compounds were dissolved in 50 % DMSO to the initial concentration of 10 mM; other solutions of compounds were also prepared in 50 % DMSO (prepared in 50 mM TBS, pH 7.4). The final concentration of DMSO in thrombin samples was 5 %. To prepare thrombin control samples, the same volume of solvent (50 % DMSO prepared in 50 mM TBS, pH 7.4) was added as in the case of the compound volume and warmed for 10 min to 37 °C.
To each reaction well, 40 μl of 3 mM chromogenic substrate was added. To initiate the chromogenic reaction, 280 μl of control thrombin (without tested compounds) or thrombin after preincubation with a polyphenolic compound to every reaction well in the same moment was added. The absorbance value was monitored every 12 s for 10 min. The maximal velocity of the reaction (V max, Δm OD/min) for each absorbance curve was determined. IC50 value (parameter) for every polyphenolic compound from inhibition curves was estimated.

Assay [5] has as its target T1, human thrombin. Briefly: SDS-PAGE analysis of thrombin-induced cross-linked fibrin formation. In kind it is biochemical. Set-up: Thrombin, also known as an active plasma coagulation factor II; purchased Sigma-Aldrich Chemical Co. (St. Louis, MO, USA) T7009; host or cells: purified from human plasma. The protocol:
In these preparations, to nine volumes of thrombin one volume of polyphenolic compounds was added (final thrombin concentration was 15.8 nM). All tested compounds were dissolved in 50 % DMSO to the initial concentration of 10 mM; other solutions of compounds were also prepared in 50 % DMSO (prepared in 50 mM TBS, pH 7.4). The final concentration of DMSO in thrombin samples was 5 %. To prepare thrombin control samples, the same volume of solvent (50 % DMSO prepared in 50 mM TBS, pH 7.4) was added as in the case of the compound volume and warmed for 10 min to 37 °C.
The reactions incubated at 37 °C were stopped after 5, 15 and 30 min by adding 150 μl of lysis buffer (0.125 M Tris/HCl, 4 % SDS, 8 M urea, 10 % β-mercaptoethanol, pH 6.8). Samples were subjected to SDS-PAGE (polyacrylamide concentration—7.5 %) using Mini-Protean Electrophoresis Cell (Bio-Rad, Hercules, CA). Proteins were stained with Coomassie Brilliant Blue R250 (CBB).

In the case of `O=c1c(O)c(-c2ccc(O)c(O)c2)oc2cc(O)cc(O)c12` [Quercetin, quercetin], the “Concentration with anti-clotting effect (prolonged thrombin time)” value in assay [1] was not below 100 µM. Moreover, the “Effect on thrombin ability to induce fibrinogen polymerization” value in assay [2] (10 min 37 °C) is listed as “inhibition of thrombin ability to induce fibrinogen polymerization”. Besides, the “Concentration causing total inhibition of thrombin activity (fibrin polymerization)” value in assay [2] (Vmax of fibrinogen polymerization at 595 nm) is 50 µM. Also, the “K A, equilibrium association constant” value is 2.59 × 10^7 M^–1 in assay [3] and 2.59e+07 M⁻¹ in assay [3] (5 sensorgrams, 50 to 1,000 μM). The Kd in assay [3] (5 sensorgrams, 50 to 1,000 μM, read-out: K D, equilibrium dissociation constant) worked out at 38.7 nM. Also, the kon in assay [3] (5 sensorgrams, 50 to 1,000 μM, read-out: k a, association rate) is 43.2 M⁻¹ s⁻¹. Moreover, the koff in assay [3] (5 sensorgrams, 50 to 1,000 μM, read-out: k d, dissociation rate) is 1.67e-06 s⁻¹. The “Response (RU)” value in assay [3] (analyte 1,000 μM, thrombin immobilized on CM5 chip) is on record as 1,882 RU. In assay [4], the IC50 came to 1500 nM. The “Effect on formation of γ–γ chains and α-polymers” value in assay [5] (at IC50 concentration of amidolytic inhibition: cyanidin […], quercetin 1.5 μM) was “also inhibited the formation of γ–γ chains and α-polymers”; in assay [5] (ten times IC50: cyanidin […], quercetin 15 μM, silybin 250 μM) it was “significantly inhibited the formation of γ–γ chains and α-polymers”.

The record behind these values is paper PMC3939009, “Thrombin inhibitory activity of some polyphenolic compounds” (Medicinal Chemistry Research, 2013).
